Measurements as given in publication PMC8757608 (Journal of Enzyme Inhibition and Medicinal Chemistry, 2022).
Read-outs that look alike come from different tables or passages of the source.

Assays:
full NCI 60-cell panel = assay: NCI-60 single dose screen, statements over several cell lines; format: cell-based, human; conditions: for inhibition at 10 µM: Homo sapiens
MCF7 cell lines = assay: DNA-flow cytometry cell cycle analysis, MCF7; format: cell-based, human; conditions: MCF7, 24 h at IC50
IGROV1 (ovarian cancer) = assay: NCI-60 single dose screen, IGROV1; format: cell-based; conditions: Homo sapiens, IGROV-1, read-out: percent growth inhibition
DU-145 cell lines = assay: DNA-flow cytometry cell cycle analysis, DU-145; format: cell-based, human; conditions: DU-145, 24 h at IC50
MCF-7 cells = assay: Annexin V-FITC apoptosis assay, MCF-7; format: cell-based, human; conditions: MCF-7 cells exposed to IC50, 24 h; for percentage of annexin V-FITC positive apoptotic cells (UR + LR): vehicle control 2.0%
LOX IMVI (melanoma) = assay: NCI-60 single dose screen, LOX IMVI; format: cell-based; conditions: Homo sapiens, read-out: percent growth inhibition
SR (leukemia) = assay: NCI-60 single dose screen, SR; format: cell-based; conditions: Homo sapiens, read-out: percent growth inhibition
MCF7 (breast cancer) = assay: NCI-60 single dose screen, MCF7; format: cell-based; conditions: Homo sapiens, MCF7, read-out: percent growth inhibition
DU-145 cells = assay: Annexin V-FITC apoptosis assay, DU-145; format: cell-based, human; conditions: DU-145 cells exposed to IC50, 24 h; for percent of annexin V-FITC positive apoptotic cells (UR + LR): vehicle control 1.7%
DU-145 (prostate cancer) = assay: NCI-60 single dose screen, DU-145; format: cell-based; conditions: Homo sapiens, DU-145, read-out: percent growth inhibition
[1] = system: NCI-H522 (non-small cell lung cancer); assay: NCI-60 single dose screen, NCI-H522; format: cell-based; conditions: Homo sapiens, NCI-H522, read-out: inhibitory activity (cell growth inhibition)
[2] = system: MCF-7 breast cancer cell line; assay: MTT assay for cell viability, MCF7; format: cell-based; conditions: Homo sapiens, MCF7, read-out: Cytotoxicity IC50 (µM ± SE) MCF7, MTT assay, MCF7
[3] = 60 cell, read-out: cell growth inhibition

Compound | inhibition at 10 µM (full NCI 60-cell panel; [3]) [%] | %G1 (MCF7 cell lines) [%] | %G2/M (MCF7 cell lines) [%] | %Pre-G1 (MCF7 cell lines) [%] | %G1 (DU-145 cell lines) [%] | %G2/M (DU-145 cell lines) [%] | increase of annexin V-FITC positive apoptotic cells compared with vehicle control (MCF-7 cells) [fold] | percentage of annexin V-FITC positive apoptotic cells (UR + LR) (MCF-7 cells) [%] | rise of annexin V-FITC positive apoptotic cells compared with vehicle control (DU-145 cells) | percent of annexin V-FITC positive apoptotic cells (UR + LR) (DU-145 cells) [%] | further results
Cc1cc(=O)[nH]c(=O)n1Cc1cn(-c2c3ccccc3nc3ccccc23)nn1 [Compound 8, 1-((1-(Acridin-9-yl)-1H-1,2,3-triazol-4-yl)methyl)-6-methylpyrimidine-2,4(1H,3H)-dione] | 61 to 97 | 24.4 | 48.3 | 24.4 | 34.6 | 39.6 | 10 | 20.3 | sixfold | 10.2 | inhibition at 10 µM (IGROV1 (ovarian cancer)): 67%; %Pre-G1 (DU-145 cell lines): 12.9%; inhibition at 10 µM (LOX IMVI (melanoma)): 84.8%; inhibition at 10 µM (SR (leukemia)): 88.6%; inhibition at 10 µM (MCF7 (breast cancer)): 97.5%; inhibition at 10 µM (DU-145 (prostate cancer)): 84.3%
O=c1ccn(Cc2cn(-c3c4ccccc4nc4ccccc34)nn2)c(=O)[nH]1 [Compound 9, 1-((1-(Acridin-9-yl)-1H-1,2,3-triazol-4-yl)methyl)pyrimidine-2,4(1H,3H)–dione] | 61 to 97 |  | 39.8 |  | 41.5 | 29.1 | 6.4 | 13 |  |  | inhibition at 10 µM (full NCI 60-cell panel; read-out: cell growth inhibition): 61.3 to 67%
O=C1NC(c2ccccc2)(c2ccccc2)C(=O)N1Cc1cn(-c2c3ccccc3nc3ccccc23)nn1 [Compound 10, 3-((1-(Acridin-9-yl)-1H-1,2,3-triazol-4-yl)methyl)-5,5-diphenylimidazolidine-2,4-dione] | 61 to 97 | 43.5 | 15.3 | 13.2 | 42.9 | 20.9 | 5.3 | 10.7 | 2 fold | 3.6 | inhibition at 10 µM [1]: 84.1%; inhibition at 10 µM (full NCI 60-cell panel; read-out: cell growth inhibition percent): 60.8 to 68.6%
CCCC(CCC)C(=O)OCc1cn(-c2c3ccccc3nc3ccccc23)nn1 [Compound 12, 1-(1-(Acridin-9-yl)-1H-1,2,3-triazol-4-yl)methyl valproate] |  |  |  |  |  |  |  |  |  |  | cell growth inhibition (in words) (full NCI 60-cell panel; against all cancer cell lines, single dose of 10 μM): either low or complete absence of cell growth inhibition
COc1cccc2c1C(=O)c1c(O)c3c(c(O)c1C2=O)C[C@@](O)(C(=O)CO)C[C@@H]3O[C@H]1C[C@H](N)[C@H](O)[C@H](C)O1 [Doxorubicin] |  |  |  |  |  |  |  |  |  |  | IC50 [2]: 2 µM
